Laboratory results reported in US8796175B2, “Method for enhancing plant intrinsic defense” (Bayer CropScience AG, priority 2008, dated 2014).

Tested on: Tomato (Solanum lycopersicum 'Rentita')
Experiment: Root growth test of tomatoes under oxygen deficiency conditions in the nutrient solution
Type: in vivo
Conditions: 1.0 mg a.i./plant, floating box, nutrient solution not aerated (oxygen deficiency stress), average of maximum root length per plant
Method: To prepare a suitable solution of the preparation, 1 part by weight of active substance is mixed with water to give the desired concentration.
Tomato seeds (Solanum lycopersicum ‘Rentita’) are grown in rock wool. After germination, the rock wool blocks are transferred into a floating box provided with the solution of the preparation and grown on under suitable climatic conditions.
The nutrient solution of the floating box was not aerated (oxygen deficiency stress).
After the desired period of time, the maximum length of the root per tomato plant is measured, and the average root length per floating box and treatment is calculated.

CC(c1ccc(C(F)(F)F)nc1)S(C)(=O)=NC#N (stereo not shown) [Compound (I-8)]
Root growth of tomatoes: Length in cm after 4 d: 6.7 cm
